Data published in the Kinase Knowledgebase extract (Sharma et al. 2016).

Molecular target: EGFR (UniProt P00533)
Sequence (P00533 whole entry, looked up): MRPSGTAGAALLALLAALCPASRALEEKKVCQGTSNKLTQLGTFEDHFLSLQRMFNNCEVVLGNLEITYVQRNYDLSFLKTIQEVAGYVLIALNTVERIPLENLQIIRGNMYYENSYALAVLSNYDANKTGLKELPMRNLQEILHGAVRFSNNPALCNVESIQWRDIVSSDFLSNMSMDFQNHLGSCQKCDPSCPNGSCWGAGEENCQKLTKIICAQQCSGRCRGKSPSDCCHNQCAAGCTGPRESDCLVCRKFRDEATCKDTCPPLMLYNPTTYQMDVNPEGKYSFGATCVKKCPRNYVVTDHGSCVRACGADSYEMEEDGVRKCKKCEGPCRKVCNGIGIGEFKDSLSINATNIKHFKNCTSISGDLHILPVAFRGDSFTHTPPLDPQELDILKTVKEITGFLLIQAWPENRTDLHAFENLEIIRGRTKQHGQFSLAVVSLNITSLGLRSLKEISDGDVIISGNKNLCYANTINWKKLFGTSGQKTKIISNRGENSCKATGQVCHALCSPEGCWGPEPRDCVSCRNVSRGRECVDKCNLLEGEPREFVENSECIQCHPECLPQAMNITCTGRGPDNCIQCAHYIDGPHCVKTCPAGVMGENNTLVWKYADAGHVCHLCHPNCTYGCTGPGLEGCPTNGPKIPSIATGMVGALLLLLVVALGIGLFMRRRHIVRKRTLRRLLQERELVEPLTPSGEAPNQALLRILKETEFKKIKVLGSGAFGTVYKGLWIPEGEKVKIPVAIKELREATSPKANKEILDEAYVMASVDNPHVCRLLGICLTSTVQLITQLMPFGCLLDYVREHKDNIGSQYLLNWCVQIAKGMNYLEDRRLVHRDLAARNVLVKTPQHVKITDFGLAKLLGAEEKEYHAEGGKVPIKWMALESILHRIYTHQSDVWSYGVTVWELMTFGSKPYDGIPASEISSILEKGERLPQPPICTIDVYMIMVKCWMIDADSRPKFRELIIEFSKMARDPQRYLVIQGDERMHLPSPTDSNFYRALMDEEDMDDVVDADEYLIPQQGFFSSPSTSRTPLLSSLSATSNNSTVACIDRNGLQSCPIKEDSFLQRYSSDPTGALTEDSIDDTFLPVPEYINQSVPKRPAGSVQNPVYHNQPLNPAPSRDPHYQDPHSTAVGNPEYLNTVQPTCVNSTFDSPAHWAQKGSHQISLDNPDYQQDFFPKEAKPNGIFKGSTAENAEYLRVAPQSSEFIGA

| IC50 [µM] | SMILES |
| --- | --- |
| > 50 | Cc1ccc2ncnc(Nc3ccccc3)c2c1 |
| > 50 | Cc1ccc2ncnc(Nc3cccc(C(=O)O)c3)c2c1 |
| > 50 | Cc1ccc2ncnc(Nc3ccc(O)cc3)c2c1 |
| 14 | Cc1ccc2ncnc(Nc3ccc(Br)cc3)c2c1 |
| 0.33 | Cc1ccc2ncnc(Nc3cccc(Br)c3)c2c1 |
| 10 | COc1ccc(Nc2ncnc3ccc(C)cc23)cc1 |
| 0.037 | Cc1ccc2ncnc(Nc3cccc(Cl)c3)c2c1 |
| > 45 | Cc1ccc2ncnc(Nc3ccc(C)c(C)c3)c2c1 |
| > 50 | Cc1ccc2ncnc(Nc3cccc(C(N)=O)c3)c2c1 |
| > 50 | Cc1ccc(Nc2ncnc3ccc(C)cc23)cc1 |
| > 50 | Cc1ccc2ncnc(Nc3ccccc3O)c2c1 |
| > 50 | Cc1ccc2ncnc(Nc3ccccc3C)c2c1 |
| > 50 | Cc1ccc2ncnc(Nc3ccc(C#N)cc3)c2c1 |
| > 50 | Cc1ccc2ncnc(Nc3ccccc3Cl)c2c1 |

Further lines, the compound ahead of its results:

| SMILES | IC50 [µM] |
| --- | --- |
| Cc1cccc2c(Nc3cccc(Cl)c3)ncnc12 | > 50 |
| COc1cc2ncnc(Nc3ccccc3)c2cc1OC | > 50 |
| COc1cc2nc(N3CCN(C)CC3)nc(Nc3cccc(Cl)c3)c2cc1OC | 3.4 |
| COc1cc2ncnc(Nc3cccc(I)c3)c2cc1OC | 0.0017 |
| Cc1ccc2ncnc(Nc3ccc4c(c3)OCO4)c2c1 | 21 |
| COc1cccc(Nc2ncnc3cc(OC)c(OC)cc23)c1 | 1 |
| Clc1cccc(Nc2ncnc3ccccc23)c1 | 0.205 |
| Clc1ccccc1Nc1ncnc2ccccc12 | > 50 |
| COc1cc2ncnc(Nc3cc(Cl)cc(Cl)c3)c2cc1OC | 0.024 |
| COc1cc2nc(Cl)nc(Nc3ccc(C)cc3)c2cc1OC | 4.9 |
| COc1cc2nc(Cl)nc(Nc3cccc(Cl)c3)c2cc1OC | 20 |
| Cc1ccc2ncnc(Nc3cccc(C(F)(F)F)c3)c2c1 | 0.86 |
| COc1cc2nc(Nc3ccc(C)cc3)nc(Nc3ccc(C)cc3)c2cc1OC | 3.4 |
| COc1cc2c(Nc3cccc(Cl)c3)ncnc2c(OC)c1OC | > 50 |
